Experiments:
LNCap = experiment: In vitro cell growth assay (MTS), LNCap; assay type: cell-based; conditions: LNCaP, 72 h, human prostate line, three days after drug treatment
MDA468 = experiment: In vitro cell growth assay (MTS), MDA468; assay type: cell-based; conditions: 72 h, human breast line MDA468, three days after drug treatment, read-out: MDA IC50
PI3K-gamma = PI3K-gamma (Homo sapiens, UniProt P48736); experiment: PI3K-gamma fluorescence polarization assay; assay type: biochemical; conditions: 20 μM PIP2, 25 μM ATP; read-out: PI3Kγ IC50
Description: The reaction buffer was 20 mM HEPES, pH 7.5, 2 mM MgCl2, 0.05% CHAPS; and 0.01% βME (added fresh). The stop/detection buffer was 100 mM HEPES, pH 7.5, 4 mM EDTA, 0.05% CHAPS; ATP 20 mM in water; PIP2 (diC8, Echelon, Salt Lake City Utah cat #P-4508) 1 mM in water (MW=856.5). The GST-GRP was 1.75 mg/mL or 1.4 mg/mL in 10% glycerol. The red detector (TAMRA) was 2.5 μM. Nunc 384-well black polypropylene fluorescent plates were used for PI3K assays.
The assay is run by placing 5 μL of diluted enzyme per well, then 5 μL of diluted compound (or 9.5 μL enzyme then 0.5 μL compound in DMSO) is added and mixed. Then, 10 μL substrate is added to start the reaction. The samples are incubated 30-60 minutes, then the reaction is stopped by adding 20 μL stop/detector mix. PI3K is diluted with reaction buffer (e.g., 5 μL or 7.5 μL PI3K into 620 μL reaction buffer), and 5 μL of diluted enzyme is used per well. A 5 μL portion of reaction buffer or of drug diluted in buffer (e.g., 4 μL/100 so final DMSO is 1% in reaction) is added to each. Pipetting up and down mixes the samples. Alternatively, the enzyme can be diluted to 1215 μL. In this case 9.8 μL is added per well and 0.2 μL compound is added in DMSO.
To prepare 1 mL of substrate solution, 955 μL reaction buffer, 40 μL PIP2, and 2.5 μL ATP are mixed. 10 μL of substrate is added to each well to start the reaction. […] The stop/detector mix is prepared by mixing 4 μL red detector and 1.6 μL or 2.0 μL GST-GRP with 1 mL stop buffer, which results in 10 nM probe and 70 nM GST-GRP. 20 μL of the stop/detector mix is added to each well to stop the reaction. The plates are read after 30-90 minutes keeping the red probe solutions dark. For the zero time point, stop/detector mix is added to the enzyme just before adding substrate. For an extra control, stop/detector mix is added to buffer (no enzyme) and substrate or to just buffer (no substrate). […] The recommended reaction has 0.06 μL per 20 μL (0.015 μg/20 μL) or 0.01125 μg/15 μL or 0.75 μg/mL.
Plates are read on machines with filters for TAMRA. The units are mP with no enzyme controls reading app 190-220 mP units. Fully active enzyme reduces fluorescence polarization down to 70-100 mP after 30 minutes. An active compound raises the mP values halfway to control or to 120-150 mP units.

PI3K-alpha = PI3K-alpha (Homo sapiens, UniProt P42336); experiment: PI3K-alpha fluorescence polarization assay; assay type: biochemical; conditions: 20 μM PIP2, 25 μM ATP; read-out: PI3Kα IC50
How it was run: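 PIP2 (diC8) and ATP substrate with PI3K in 20 mM HEPES pH 7.5, 2 mM MgCl2, 0.05% CHAPS, 0.01% βME; 1% DMSO final; 30–60 min reaction. Stopped with EDTA plus GST-GRP (70 nM) and TAMRA probe (10 nM); FP (mP) read after 30–90 min, with no-enzyme controls.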

mTOR = mTOR (Homo sapiens, UniProt P42345); experiment: mTOR enzyme assay (DELFIA, purified FLAG-TOR, His6-S6K substrate); assay type: biochemical; design: FLAG; conditions: 100 μM ATP, 2 hours
mTOR, sequence (P42345 1360-2549 limits assumed): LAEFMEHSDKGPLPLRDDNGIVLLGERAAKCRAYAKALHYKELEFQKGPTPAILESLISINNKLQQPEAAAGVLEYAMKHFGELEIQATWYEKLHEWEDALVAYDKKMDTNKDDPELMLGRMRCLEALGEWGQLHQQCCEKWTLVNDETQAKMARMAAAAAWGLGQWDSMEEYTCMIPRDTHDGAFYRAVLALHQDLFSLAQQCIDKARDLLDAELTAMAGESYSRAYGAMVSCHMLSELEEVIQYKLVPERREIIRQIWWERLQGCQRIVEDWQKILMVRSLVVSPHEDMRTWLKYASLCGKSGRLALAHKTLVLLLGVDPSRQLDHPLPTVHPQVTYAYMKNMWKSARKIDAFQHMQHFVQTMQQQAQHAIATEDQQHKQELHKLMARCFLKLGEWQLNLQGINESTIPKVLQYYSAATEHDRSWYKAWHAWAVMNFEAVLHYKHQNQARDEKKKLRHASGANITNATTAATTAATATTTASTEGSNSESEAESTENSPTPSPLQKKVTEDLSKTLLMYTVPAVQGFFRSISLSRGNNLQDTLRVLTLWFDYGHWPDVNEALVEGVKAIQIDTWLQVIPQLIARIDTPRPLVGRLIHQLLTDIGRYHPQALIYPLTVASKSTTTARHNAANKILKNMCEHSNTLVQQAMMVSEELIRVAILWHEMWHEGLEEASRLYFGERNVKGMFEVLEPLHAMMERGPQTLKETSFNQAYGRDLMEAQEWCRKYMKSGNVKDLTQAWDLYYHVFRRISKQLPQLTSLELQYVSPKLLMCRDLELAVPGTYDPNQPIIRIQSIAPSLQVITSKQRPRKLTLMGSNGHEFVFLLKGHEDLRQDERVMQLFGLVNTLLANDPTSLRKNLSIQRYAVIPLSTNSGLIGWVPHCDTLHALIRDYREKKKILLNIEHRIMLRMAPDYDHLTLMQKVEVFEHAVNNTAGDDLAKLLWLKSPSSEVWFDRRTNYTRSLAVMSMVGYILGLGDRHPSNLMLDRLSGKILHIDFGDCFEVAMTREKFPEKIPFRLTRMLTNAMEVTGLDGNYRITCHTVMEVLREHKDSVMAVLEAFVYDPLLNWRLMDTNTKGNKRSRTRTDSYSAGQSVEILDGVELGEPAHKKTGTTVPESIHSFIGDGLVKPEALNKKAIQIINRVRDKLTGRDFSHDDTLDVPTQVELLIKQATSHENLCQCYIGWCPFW

PI3K-alpha, sequence (P42336 whole entry, species assumed): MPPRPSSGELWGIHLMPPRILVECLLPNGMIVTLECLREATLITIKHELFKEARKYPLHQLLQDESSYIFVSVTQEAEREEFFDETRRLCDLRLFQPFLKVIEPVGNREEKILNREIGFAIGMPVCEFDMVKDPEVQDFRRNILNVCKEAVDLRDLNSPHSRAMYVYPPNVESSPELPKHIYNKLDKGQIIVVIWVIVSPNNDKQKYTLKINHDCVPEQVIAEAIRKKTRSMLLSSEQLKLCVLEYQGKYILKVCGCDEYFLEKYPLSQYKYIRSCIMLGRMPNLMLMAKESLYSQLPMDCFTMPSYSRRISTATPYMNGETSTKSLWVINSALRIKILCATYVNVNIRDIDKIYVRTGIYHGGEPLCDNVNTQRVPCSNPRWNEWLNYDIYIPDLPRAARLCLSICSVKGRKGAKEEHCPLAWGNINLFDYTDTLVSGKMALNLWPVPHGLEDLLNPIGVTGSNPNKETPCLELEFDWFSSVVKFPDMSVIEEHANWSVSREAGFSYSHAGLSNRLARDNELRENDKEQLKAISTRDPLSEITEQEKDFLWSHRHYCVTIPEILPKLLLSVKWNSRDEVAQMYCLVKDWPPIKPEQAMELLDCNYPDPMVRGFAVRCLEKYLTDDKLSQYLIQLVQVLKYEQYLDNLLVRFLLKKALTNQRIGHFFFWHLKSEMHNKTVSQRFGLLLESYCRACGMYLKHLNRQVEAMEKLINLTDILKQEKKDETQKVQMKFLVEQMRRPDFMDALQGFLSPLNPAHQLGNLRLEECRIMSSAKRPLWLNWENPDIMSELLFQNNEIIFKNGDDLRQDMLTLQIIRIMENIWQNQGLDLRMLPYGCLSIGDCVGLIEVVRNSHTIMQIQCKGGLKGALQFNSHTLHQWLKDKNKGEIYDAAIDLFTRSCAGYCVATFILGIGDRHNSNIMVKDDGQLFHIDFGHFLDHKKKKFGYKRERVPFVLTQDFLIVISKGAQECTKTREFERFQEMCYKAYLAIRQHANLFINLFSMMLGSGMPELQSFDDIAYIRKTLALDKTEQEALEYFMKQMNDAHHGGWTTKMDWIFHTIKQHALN
PI3K-alpha, sequence (P27986 whole entry partner, species assumed): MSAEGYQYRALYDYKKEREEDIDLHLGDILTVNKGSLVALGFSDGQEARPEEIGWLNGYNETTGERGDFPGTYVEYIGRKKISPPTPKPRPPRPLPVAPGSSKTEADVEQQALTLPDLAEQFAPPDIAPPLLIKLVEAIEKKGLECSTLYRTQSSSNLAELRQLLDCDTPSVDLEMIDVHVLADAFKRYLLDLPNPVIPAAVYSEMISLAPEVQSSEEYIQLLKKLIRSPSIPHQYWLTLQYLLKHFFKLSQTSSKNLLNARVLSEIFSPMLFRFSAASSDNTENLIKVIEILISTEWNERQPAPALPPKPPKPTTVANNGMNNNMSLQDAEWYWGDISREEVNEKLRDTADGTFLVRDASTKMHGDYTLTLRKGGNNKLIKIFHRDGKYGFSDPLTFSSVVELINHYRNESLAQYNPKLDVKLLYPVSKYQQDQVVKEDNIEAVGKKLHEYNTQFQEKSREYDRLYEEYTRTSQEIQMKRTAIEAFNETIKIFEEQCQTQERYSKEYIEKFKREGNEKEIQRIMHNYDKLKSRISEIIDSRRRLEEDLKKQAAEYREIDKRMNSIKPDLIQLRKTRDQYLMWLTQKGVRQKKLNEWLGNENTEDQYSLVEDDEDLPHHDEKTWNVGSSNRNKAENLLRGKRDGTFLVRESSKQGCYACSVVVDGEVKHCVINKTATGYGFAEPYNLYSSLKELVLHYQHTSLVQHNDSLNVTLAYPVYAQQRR
PI3K-gamma, sequence (P48736 whole entry, species assumed): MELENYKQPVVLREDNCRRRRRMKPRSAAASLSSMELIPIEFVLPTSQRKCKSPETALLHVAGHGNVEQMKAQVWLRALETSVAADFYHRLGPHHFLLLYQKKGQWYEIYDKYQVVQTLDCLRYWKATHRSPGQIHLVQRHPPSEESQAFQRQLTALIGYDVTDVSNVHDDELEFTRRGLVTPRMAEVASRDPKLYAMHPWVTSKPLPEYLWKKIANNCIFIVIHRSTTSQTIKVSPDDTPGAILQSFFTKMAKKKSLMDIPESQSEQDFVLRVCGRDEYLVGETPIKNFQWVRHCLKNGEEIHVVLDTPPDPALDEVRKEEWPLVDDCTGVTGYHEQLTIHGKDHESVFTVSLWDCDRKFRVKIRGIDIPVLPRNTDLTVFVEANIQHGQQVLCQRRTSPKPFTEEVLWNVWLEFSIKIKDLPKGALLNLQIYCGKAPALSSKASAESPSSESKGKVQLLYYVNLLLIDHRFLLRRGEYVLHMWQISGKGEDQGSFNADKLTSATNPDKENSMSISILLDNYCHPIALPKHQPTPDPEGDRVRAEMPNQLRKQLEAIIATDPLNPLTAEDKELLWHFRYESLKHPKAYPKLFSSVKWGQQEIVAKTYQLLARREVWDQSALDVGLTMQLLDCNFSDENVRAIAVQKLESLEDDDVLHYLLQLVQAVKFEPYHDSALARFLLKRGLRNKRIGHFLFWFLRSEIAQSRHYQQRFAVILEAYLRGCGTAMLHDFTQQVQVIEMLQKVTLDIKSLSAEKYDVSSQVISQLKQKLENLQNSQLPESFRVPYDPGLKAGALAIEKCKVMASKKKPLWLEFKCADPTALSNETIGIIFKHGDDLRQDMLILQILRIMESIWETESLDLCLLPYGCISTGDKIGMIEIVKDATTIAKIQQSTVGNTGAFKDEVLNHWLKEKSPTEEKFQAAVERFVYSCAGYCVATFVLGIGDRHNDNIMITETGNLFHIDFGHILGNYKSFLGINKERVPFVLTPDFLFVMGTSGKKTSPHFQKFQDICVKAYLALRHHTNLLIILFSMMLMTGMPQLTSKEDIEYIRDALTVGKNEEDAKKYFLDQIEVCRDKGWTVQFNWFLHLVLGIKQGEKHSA

Structure (SMILES)	IC50 (LNCap) [nM]	IC50 (MDA468) [nM]	IC50 (PI3K-gamma) [nM]	IC50 (PI3K-alpha) [nM]	IC50 (mTOR) [nM]
O=C(Nc1ccc(-c2nc(N3C4CCC3COC4)c(Cl)c(N3C4CCC3COC4)n2)cc1)Nc1cccnc1 [1-[4-(5-chloro-4,6-di-3-oxa-8-azabicyclo[3.2.1]oct-8-ylpyrimidin-2-yl)phenyl]-3-pyridin-3-ylurea]	48	220	932	922	0.655
CCNC(=O)Nc1ccc(-c2nc(CN(C)C)cc(N3C4CCC3COC4)n2)cc1 [1-(4-{4-[(dimethylamino)methyl]-6-(3-oxa-8-azabicyclo[3.2.1]oct-8-yl)pyrimidin-2-yl}phenyl)-3-ethylurea]	1100	3000	12600	6240	40
CC(C)Nc1cc(N2C3COCC2COC3)nc(-c2ccc(NC(=O)Nc3ccc(N4CCN(C)CC4)cc3)cc2)n1 [1-{4-[4-(3,7-dioxa-9-azabicyclo[3.3.1]non-9-yl)-6-(isopropylamino)pyrimidin-2-yl]phenyl}-3-[4-(4-methylpiperazin-1-yl)phenyl]urea]	280	320	7890	1510	14.5
CN(C)CCOc1ccc(NC(=O)Nc2ccc(-c3nc(NCCS(C)(=O)=O)cc(N4C5CCC4COC5)n3)cc2)cc1 [1-{4-[2-(dimethylamino)ethoxy]phenyl}-3-{4-[4-{[2-(methylsulfonyl)ethyl]amino}-6-(3-oxa-8-azabicyclo[3.2.1]oct-8-yl)pyrimidin-2-yl]phenyl}urea]	480	420	≥ 10000	1860	26
CN(C)CCOc1ccc(NC(=O)Nc2ccc(-c3nc(C4CCOCC4)cc(N4C5CCC4COC5)n3)cc2)cc1 [1-{4-[2-(dimethylamino)ethoxy]phenyl}-3-{4-[4-(3-oxa-8-azabicyclo[3.2.1]oct-8-yl)-6-(tetrahydro-2H-pyran-4-yl)pyrimidin-2-yl]phenyl}urea]	4	11	7300	1460	1.15
CC(C)N1CCN(C(=O)c2ccc(NC(=O)Nc3ccc(-c4nc(N5C6CCC5COC6)cc(N5CCOC[C@H]5C)n4)cc3)cc2)CC1 [1-(4-{[4-(1-methylethyl)piperazin-1-yl]carbonyl}phenyl)-3-(4-{4-[(3R)-3-methylmorpholin-4-yl]-6-(3-oxa-8-azabicyclo[3.2.1]oct-8-yl)pyrimidin-2-yl}phenyl)urea]	≤ 0.8	0.8	1200	123	0.6
C[C@@H]1COCCN1c1cc(N2C3CCC2COC3)nc(-c2ccc(NC(=O)Nc3ccc(N4CCN(C)CC4)cc3)cc2)n1 [1-(4-{4-[(3R)-3-methylmorpholin-4-yl]-6-(3-oxa-8-azabicyclo[3.2.1]oct-8-yl)pyrimidin-2-yl}phenyl)-3-[4-(4-methylpiperazin-1-yl)phenyl]urea]	≤ 0.8	1	3500	864	1.25
O=C(Nc1ccncc1)Nc1ccc(-c2nc(NC3CCOCC3)cc(N3C4CCC3COC4)n2)cc1 [1-{4-[4-(3-oxa-8-azabicyclo[3.2.1]oct-8-yl)-6-(tetrahydro-2H-pyran-4-ylamino)pyrimidin-2-yl]phenyl}-3-pyridin-4-ylurea]	40	40	12000	2010	3.8
C[C@@H]1COCCN1c1cc(N2C3CCC2COC3)nc(-c2ccc(NC(=O)Nc3ccncc3)cc2)n1 [1-(4-{4-[(3R)-3-methylmorpholin-4-yl]-6-(3-oxa-8-azabicyclo[3.2.1]oct-8-yl)pyrimidin-2-yl}phenyl)-3-pyridin-4-ylurea]	1	5	778	314	0.645
O=C(Nc1ccc(-c2nc(C3CCOCC3)cc(N3C4CCC3COC4)n2)cc1)Nc1cccnc1 [1-{4-[4-(3-oxa-8-azabicyclo[3.2.1]oct-8-yl)-6-(tetrahydro-2H-pyran-4-yl)pyrimidin-2-yl]phenyl}-3-pyridin-3-ylurea]	4	200	≥ 10000	2690	0.32
CN1CCN(Cc2ccc(NC(=O)Nc3ccc(-c4nc(N5C6CCC5COC6)cc(N5C[C@H]6C[C@@H]5CO6)n4)cc3)cc2)CC1 [1-{4-[(4-methylpiperazin-1-yl)methyl]phenyl}-3-(4-{4-[(1R,4R)-2-oxa-5-azabicyclo[2.2.1]hept-5-yl]-6-(3-oxa-8-azabicyclo[3.2.1]oct-8-yl)pyrimidin-2-yl}phenyl)urea]	180	190	7590	1190	9.9
O=C(Nc1ccncc1)Nc1ccc(-c2nc(C3CCOCC3)cc(N3C4CCC3COC4)n2)cc1 [1-{4-[4-(3-oxa-8-azabicyclo[3.2.1]oct-8-yl)-6-(tetrahydro-2H-pyran-4-yl)pyrimidin-2-yl]phenyl}-3-pyridin-4-ylurea]	≤ 0.8	4	7980	1780	0.365
C[C@@H]1CN(c2cc(N3C4CCC3COC4)nc(-c3ccc(NC(=O)Nc4ccc(N5CCN(C)CC5)cc4)cc3)n2)C[C@H](C)O1 [1-(4-{4-[(2R,6S)-2,6-dimethylmorpholin-4-yl]-6-(3-oxa-8-azabicyclo[3.2.1]oct-8-yl)pyrimidin-2-yl}phenyl)-3-[4-(4-methylpiperazin-1-yl)phenyl]urea]	30	130	6440	1550	4.4
CN(C)CCOc1ccc(NC(=O)Nc2ccc(-c3nc(N4C5CCC4COC5)cc(N4C[C@H]5C[C@@H]4CO5)n3)cc2)cc1 [1-{4-[2-(dimethylamino)ethoxy]phenyl}-3-(4-{4-[(1R,4R)-2-oxa-5-azabicyclo[2.2.1]hept-5-yl]-6-(3-oxa-8-azabicyclo[3.2.1]oct-8-yl)pyrimidin-2-yl}phenyl)urea]	120	130	9470	2740	12
C[C@@H]1COCCN1c1cc(N2C3CCC2COC3)nc(-c2ccc(NC(=O)Nc3ccc(C(=O)N4CCN(C)CC4)cc3)cc2)n1 [1-(4-{4-[(3R)-3-methylmorpholin-4-yl]-6-(3-oxa-8-azabicyclo[3.2.1]oct-8-yl)pyrimidin-2-yl}phenyl)-3-{4-[(4-methylpiperazin-1-yl)carbonyl]phenyl}urea]	≤ 0.8	0.8	1130	78	0.75
C[C@@H]1CN(c2cc(N3C4CCC3COC4)nc(-c3ccc(NC(=O)Nc4ccc(N5CCN(C)CC5)nc4)cc3)n2)C[C@H](C)O1 [1-(4-{4-[(2R,6S)-2,6-dimethylmorpholin-4-yl]-6-(3-oxa-8-azabicyclo[3.2.1]oct-8-yl)pyrimidin-2-yl}phenyl)-3-[6-(4-methylpiperazin-1-yl)pyridin-3-yl]urea]	100	200	15300	1690	15.2
CN1CCN(c2ccc(NC(=O)Nc3ccc(-c4nc(N5C6CCC5COC6)cc(N5C[C@@H]6C[C@H]5CO6)n4)cc3)cc2)CC1 [1-[4-(4-methylpiperazin-1-yl)phenyl]-3-(4-{4-[(1S,4S)-2-oxa-5-azabicyclo[2.2.1]hept-5-yl]-6-(3-oxa-8-azabicyclo[3.2.1]oct-8-yl)pyrimidin-2-yl}phenyl)urea]	10	18	≥ 10000	1780	9.75

From patent US8835429B2, “Pyrimidine compounds, their use as mTOR kinase and Pl3 kinase inhibitors, and their syntheses” (Wyeth LLC, priority 2009, dated 2014)
